The values below come from patent publication US9562053B2, “Benzo-fused heterocyclic derivatives useful as agonists of GPR120” (Janssen Pharmaceutica NV, priority 2013, dated 2017).

Common to all, as to format: cell-based
In test [1] the target is T1, Human GPR120 short form (Homo sapiens, UniProt Q5NUL3).
T1 construct: expressed in transfected cells
T1 sequence (Q5NUL3 1-361): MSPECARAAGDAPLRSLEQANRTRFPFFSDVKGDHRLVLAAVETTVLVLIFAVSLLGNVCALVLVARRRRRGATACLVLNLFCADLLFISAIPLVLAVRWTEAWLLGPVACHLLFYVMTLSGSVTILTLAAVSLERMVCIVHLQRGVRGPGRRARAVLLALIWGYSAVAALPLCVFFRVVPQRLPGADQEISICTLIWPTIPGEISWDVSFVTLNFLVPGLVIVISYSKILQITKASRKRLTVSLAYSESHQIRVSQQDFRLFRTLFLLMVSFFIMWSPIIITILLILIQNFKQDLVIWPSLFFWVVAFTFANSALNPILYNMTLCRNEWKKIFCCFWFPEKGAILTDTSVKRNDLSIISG
Description: Human GPR120 in Calcium Flux Assay, Procedure Calcium A (2500 cells/well). The source says:
(§1) This in vitro assay serves to assess test compound agonist activity against the short splice variant (SVS with Accession number NM_001195755.1 confirmed by sequencing data) of the GPR120 receptor. The Human Short splice variant #2 (NM_001195755.1) is missing an in-frame coding exon compared to variant 1 (the Human Long splice variant NM_181745.3), resulting in a shorter isoform (GPR120-S) lacking a 16 aa protein segment compared to isoform GPR120-L. The assay platform utilizes HEK-293 cells stably transfected to express the Human GPR120 short form. These cells are first loaded with the Ca^+2 sensitive dye, Fluo-4 NW. Upon stimulation, intracellular released Ca^+2 can bind to the dye and alter its fluorescence intensity. This increase in fluorescence signal, and thus the flux in intracellular [Ca^+2], is detected and quantitated by fluorescence imaging using a FLIPR reader. The effect of the agonist is measured as a function of concentration and used to calculate an EC50 based upon a response curve.
In this procedure 2500 cells/well were employed.
(§2) A Human GPR120 clone (Genbank accession number NM_001195755.1) was placed into the pcDNA3.1 mammalian expression vector carrying the neomycin resistance gene. A stable mammalian cell was generated by placing the above clone into a HEK293 background. Clonal cells responding to long chain fatty acids had expression levels of GPR120 confirmed by RT-qPCR. Human HEK-GPR120 cells were cultured in Dulbecco's Modified Eagle's Medium (DMEM)/F12 medium supplemented with 10% fetal bovine serum (FBS), 1% L-Glutamine and 1% penicillin/streptomycin and 0.5 mg/ml G-418. Cells were split 2 times a week to keep the cells in the log-phase growth.
(§3) In preparation for the assay, HEK cells stably transfected with Human GPR120 (2.5K cells per well in 25 uL growth medium) were seeded into 384-well plates and then incubated overnight (37° C., 5% CO2). The next day, the media was changed to 20 μl assay buffer and the cell starved for 1 h at 37° C. The dye loading solution (2× dye) was prepared using 10 ml assay buffer, 100 μl of 250 mM probenecid, 1 bottle of Component A, and 20 μl of dye in DMSO. Twenty μl of the 2× dye loading buffer was then added to each well. The plates were incubated at 37° C. for 30 min, then at room temperature for an additional 15 minutes, before performing the assay on FLIPR.
(§4) Test compounds were prepared in assay buffer (2 μl of test compound+198 μl assay buffer, final DMSO in assay plate is 0.2%) at the desired concentration, more particularly at 100 μM, 50 μM, 25 μM, 12.5 μM, 6.25 μM, 3.125 μM, 1.562 μM, 0.781 μM, 0.391 μM, 0.195 μM, 0.098 μM, 0.049 μM, 0.024 μM and 0.012 μM.
(§5) The assay was performed on a FLIPR plate reader using the following parameters. Baseline was read for 10 seconds at 1 sec intervals. The program was set to transfer 10 μL of ligand from compound plate to cell plate after baseline reading. Aspiration was executed at: 10 μl/sec speed, 4.6 μl height; Dispensing was executed at: 30 μl/sec speed, 45 μl height. After compound addition, each well was read for 300 sec, with measurements collected at 1 sec intervals.
(§6) The kinetic data from the FLIPR was based upon a 5 minute window for data collection. The fluorescence of each sample well was used for individual calculations of a normalized RFU value, which was defined as maximum response minus the minimum response. The normalized fluorescence reading (RFU) was calculated as follows: RFU=Fmax−Fmin
(§7) The data were fitted to a sigmoidal dose-response curve with a variable Hill slope (<2) using nonlinear regression with GraphPad Prism 5.0 to calculate the EC50 values. The Fitting Equation was: Y=Bottom+(Top−Bottom)/(1+10^((LogEC50−X)*HillSlope)), where X is the log of the concentration and Y is the response.

In test [2] the target is T2, short form of the GPR120 receptor (Homo sapiens, UniProt Q5NUL3).
T2 construct: host or cells: PathHunter CHO-K1 GPR120S β-Arrestin Cell Line
T2 sequence (Q5NUL3 1-361): T1 sequence (Q5NUL3 1-361)
Kind of test: Human GPR120 DiscoveRx PathHunter Beta-Arrestin Assay, Procedure β-arrestin B (5000 cells/well). From the text:
The binding of an agonist (medium/long chain fatty acids or small molecule agonists) to the G-protein-coupled receptor GPR120 activates phospholipase C, leading to release of intracellular Ca^+2 through the generation of inositol 1,4,5-trisphosphate (InsP3 or IP3). GPR120 activation can also trigger intracellular signaling via recruitment of β-Arrestin. In the present method, agonist-induced activation of the human GPR120 receptor is monitored through the use of PathHunter CHO-K1 GPR120 β-Arrestin Cell Line engineered by DiscoveRx, as detailed below. The cell lines are designed to co-express both the ProLink/Enzyme Donor (PK)-tagged GPCR and the Enzyme Activator (EA)-tagged β-Arrestin fusion proteins. Upon GPR120 receptor stimulation/activation, the EA-tagged β-Arrestin portion is translocated to the tagged receptor, where the two enzyme fragments are brought within close proximity. Under these conditions, these fragments can interact and form an active Beta-gal enzyme complex through Enzyme Fragment Complementation (EFC). This active Beta-gal complex can enzymatically hydrolyse the substrate to produce a detectable light signal; therefore, activation as a function of agonist concentration can be expressed as an EC50 value to determine relative compound activities. This in vitro assay therefore serves to assess compound agonist activity of the GPR120.
In Procedure β-arrestin B the cells used were PathHunter CHO-K1 GPR120S β-Arrestin Cell Line, expressing the short form of the GPR120 receptor (Accession #NM_181745), with 5000 cells/well.
The selected CHO-K1 GPR120 β-Arrestin cells were cultured in Ham's F12 media supplemented with 10% fetal bovine serum (FBS), 1% Glutamine, 1×p/s, 800 μg/ml G418 and 300 μg/ml Hygromycin B (for selection). Cell stocks were maintained and grown in a sub-confluent state using standard cell culture procedures. The day before the experiment, the cells were harvested with non-enzymatic cell dissociation buffer and re-suspended in complete growth media at the desired concentration. A Corning 384-plate was then seeded with the proper number of cells in a volume of 25 μL, per well. The seeded plates were incubated overnight at 37° C.
On the day of the experiment, the Assay Buffer containing (a) HBSS with Ca^++ and Mg^++, (b) 20 mM HEPES, and (c) 0.1% BSA stabilizer (pH 7.4) was prepared. The growth medium was gently removed from the cell plates and 20 μL of Assay Buffer added to each well. The plate was then incubated at 37° C. for 60 mins. Test compounds were serially diluted in Assay Buffer to desired concentrations (more particularly, to one or more of the following μM concentrations: 25 μM, 12.5 μM, 6.25 μM, 3.125 μM, 1.562 μM, 0.781 μM, 0.391 μM, 0.195 μM, 0.098 μM, 0.049 μM, 0.024 μM, 0.012 μM). Five μl of compound dilution was then added to each well and the plate incubated at 37° C. for 90 mins. The detection reagents were prepared according to the manufacture's instruction. Twelve μL of the detection reagents were added to each well and the plate incubated at room temperature for 60 mins.
The plates were read on an EnVision instrument, using Protocol name: Luminescence, Plate type: 384 Costar, Measurement height: 3 mm, Measurement time: 1 s, Aperture: 384 Plate aperture. The % activity relative to the positive control was calculated using the following equation:
The % Activity values were plotted versus the concentration of test compound and fitted to a sigmoidal dose-response curve with a Hill slope=1 (fixed value) using nonlinear regression with GraphPad Prism 5.0 to calculate the EC50 values. The Fitting Equation was: Y=Bottom+(Top−Bottom)/(1+10^((LogEC50−X)*HillSlope)), where X is the log of the concentration and Y is the response.

In test [3] the target is T1, Human GPR120 short form. Kind of test: Human GPR120 in Calcium Flux Assay, Procedure Calcium B (4200 cells/well).
Excerpt: as §1
In this procedure 4200 cells/well were employed.
as §2, §3, §4, §5, §6, §7
In general terms: A change in cytosolic calcium serves as a functional read-out for many receptors and channels.

In general, EC50 refers to the concentration giving half of the maximal effect. For the compound `CCc1nc2c(COc3ccc(CCC(=O)O)c(C)c3C)cc(F)cc2s1` [Compound 105, 3-{4-[(2-Ethyl-6-fluoro-1,3-benzothiazol-4-yl)methoxy]-2,3-dimethylphenyl}propanoic acid], the EC50 at Human GPR120 short form [1] came out at 204 nM; in test [2], 402 nM; on Human GPR120 short form [3], 91 nM.
In the case of `Cc1c(CCC(=O)O)ccc(OCc2cc(Cl)cc3sc(C(C)(C)C)nc23)c1C` [Compound 104, 3-{4-[(2-tert-Butyl-6-chloro-1,3-benzothiazol-4-yl)methoxy]-2,3-dimethylphenyl}propanoic acid], the EC50 was 1880 nM at Human GPR120 short form [1], 1550 nM in test [2] and 499 nM on Human GPR120 short form [3].
For the compound `Cc1c(CCC(=O)O)ccc(OCc2cc(Cl)cc3sc(C(C)C)nc23)c1C` [Compound 106, 3-(4-{[6-chloro-2-(1-methylethyl)-1,3-benzothiazol-4-yl]methoxy}-2,3-dimethylphenyl)propanoic acid], the EC50 is 882 nM in test [2] and 184 nM on Human GPR120 short form [3].
